Assay results taken from patent US8148392B2, “2-indolyl imidazo [4,5-d] phenanthroline derivatives and their use in the treatment of cancer” (Lorus Therapeutics Inc., priority 2005, dated 2012).
Entries after “also recorded” stand apart in the source; their conditions may differ. Read-outs that look alike come from different tables or passages of the source.

Columns and labels:
Assay type in all cases: cell-based, human
KLF4 [1] = experiment: KLF4 gene expression by RT-PCR, MDA-MB-231; settings: MDA-MB-231, relative to vehicle control as 1
Excerpt: (§1) Gene expression levels of KLF4, induced by compounds of Formula I, were also examined on various cancer cell types by RT-PCR. Fold changes in KLF4 in compound-treated cells were expressed relative to KLF4 expression in vehicle control-treated cells of respective cell type as “1”. […] Additionally, xenografts of MDA-MB-435 implanted into mammary fat pads of female SCID mice have shown immunohistochemical staining consistent with melanocytic origin (Ellison G, Klinowska T, Westwood R F, Docter E, French T, Fox J C. (2002) Mol Pathol. 55(5): 294-299). The breast cancer cell line MDA-MB-435 may be expected to function differently than the other breast cancer cell lines.

H-460 lung cancer cells = experiment: XTT cell proliferation assay, H-460
Description: (§2) Cell growth inhibition IC50 (μM) by compounds of Formula I was tested on various cancer cell types by XTT cell proliferation assay. The growth inhibitory effects of the compounds of Formula I as shown below for the melanoma cell line SK-MEL-2 were reproducible by Lorus Therapeutics Inc.

KLF4 [2] = experiment: KLF4 gene expression by RT-PCR, MOLT-4; settings: MOLT-4, relative to vehicle control as 1
Excerpt: as §1

KLF4 [3] = experiment: KLF4 gene expression by RT-PCR, HCT-116; settings: HCT-116, relative to vehicle control as 1
Excerpt: as §1

KLF4 [4] = experiment: KLF4 gene expression by RT-PCR, H-460; settings: for KLF2, KLF4 and KLF6 gene expression: H-460, 2.5 μM; for KLF4 (gene fold increase): H-460, relative to vehicle control as 1
Excerpt: as §1
Expressions of KLF2, 4 and 6 genes in H-460 cells, treated with vehicle control or 2.5 μM compound 3 or compound 7, were measured by RT-PCR. Gene expression was presented relative to respective gene expression in vehicle control-treated group as “1”.

KLF4 [5] = experiment: KLF4 gene expression by RT-PCR, CCRF-CEM; settings: relative to vehicle control as 1
Excerpt: as §1

MOLT-4 leukemia cells = experiment: XTT cell proliferation assay, MOLT-4; settings: read-out: IC50 (cell growth inhibition)
Description: as §2

MTF-1 = MTF-1 gene expression in HT-29 cells, RT-PCR; settings: for MTF-1 expression change with zinc supplement: HT-29, 1 μM compound plus ZnCl2, 8 hr; for MTF-1 gene expression, change: HT-29, 1 μM, in words
Description: The gene expression of MTF-1 was examined by RT-PCR following treatment of HT-29 cells with 1 μM compound 3 for indicated time.
To assess the cellular response to zinc depletion, the gene expression of zinc-sensitive transcription factor MTF-1 was examined.
The ability of compounds of Formula I to modulate gene expression of MT1A (FIG. 55A), MTF-1 (FIG. 55B), Cyclin D1 (FIG. 55C) and KLF4 (FIG. 55D) was determined by RT-PCR. HT-29 cells were treated with 1 μM compound 3 or compound 7, 35 μM ZnCl2, compound 3 and ZnCl2 together, or compound 7 and ZnCl2 together for 8 to 16 hr. The respective gene expression was normalized with β-actin gene expression in the same sample. Fold change in gene expression was expressed relative to the respective gene level of DMSO control.
The effect of compound 3 and compound 64 on gene expression changes in MT1A (FIG. 57A), MTF-1 (FIG. 57B), Cyclin D1 (FIG. 57C) and KLF4 (FIG. 57D) in HT-29 cells was determined by RT-PCR. HT-29 cells were treated with 1 μM compound 3 or compound 64, 35 μM ZnCl2, compound 3 and ZnCl2 together, or compound 64 and ZnCl2 together for 8 to 16 hr. The respective gene expression was normalized with β-actin gene expression in the same sample. Fold change in gene expression was expressed relative to the respective gene level of DMSO control.

CCRF-CEM leukemia cells = experiment: XTT cell proliferation assay, CCRF-CEM; settings: read-out: IC50 (cell growth inhibition)
Description: as §2

[6] = Homo sapiens, NCI-H460, read-out: IC50 (cell growth inhibition)

SMILES: Cc1[nH]c2ccccc2c1-c1nc2c3cccnc3c3ncccc3c2[nH]1 [Compound 3]
- KLF4 (gene fold increase) (KLF4 [1]): 1.52 fold
- IC50 (H-460 lung cancer cells; [6]): 2900 nM
- KLF4 (gene fold increase) (KLF4 [2]): 44.79 fold
- KLF4 (gene fold increase) (KLF4 [3]): 5.88 fold
- KLF2, KLF4 and KLF6 gene expression (KLF4 [4]): increased KLF4 as most significantly changed gene
- KLF4 (gene fold increase) (KLF4 [4]): 3.4 fold
- KLF4 (gene fold increase) (KLF4 [5]): 28.05 fold
- IC50 (MOLT-4 leukemia cells; Homo sapiens): 150 nM
- MTF-1 expression change with zinc supplement (MTF-1): recovered by addition of zinc supplement; also recorded: reversed by addition of zinc supplement
- MTF-1 gene expression, change (MTF-1): Time-dependent decreases; also recorded: decrease in MTF-1 expression was observed after 8 hr treatment; also recorded: significant decrease in gene expression of MTF-1; also recorded: decreased expressions of MT1A, MTF-1 and Cyclin D1
- IC50 (CCRF-CEM leukemia cells; Homo sapiens): 420 nM

SMILES: Cc1[nH]c2ccc(F)cc2c1-c1nc2c3cccnc3c3ncccc3c2[nH]1 [Compound 7]
- KLF4 (gene fold increase) (KLF4 [1]): 1.6 fold
- IC50 (H-460 lung cancer cells; [6]): 2600 nM
- KLF4 (gene fold increase) (KLF4 [2]): 173.6 fold
- KLF4 (gene fold increase) (KLF4 [3]): 6.15 fold
- KLF2, KLF4 and KLF6 gene expression (KLF4 [4]): increased KLF4 as most significantly changed gene
- KLF4 (gene fold increase) (KLF4 [4]): 2.1 fold
- KLF4 (gene fold increase) (KLF4 [5]): 48.5 fold
- IC50 (MOLT-4 leukemia cells; Homo sapiens): 70 nM
- MTF-1 expression change with zinc supplement (MTF-1): reversed by addition of zinc supplement
- MTF-1 gene expression, change (MTF-1): decreased expressions of MT1A, MTF-1 and Cyclin D1
- IC50 (CCRF-CEM leukemia cells; Homo sapiens): 400 nM

SMILES: CCc1cccc2c(-c3nc4c5cccnc5c5ncccc5c4[nH]3)c(C(C)(C)C)[nH]c12 [Compound 64]
- KLF4 (gene fold increase) (KLF4 [1]): 2.06 fold
- IC50 (H-460 lung cancer cells; read-out: IC50 (cell growth inhibition)): 300 nM
- KLF4 (gene fold increase) (KLF4 [2]): 265.03 fold
- KLF4 (gene fold increase) (KLF4 [3]): 3.05 fold
- KLF4 (gene fold increase) (KLF4 [4]): 1.64 fold
- KLF4 (gene fold increase) (KLF4 [5]): 73.77 fold
- IC50 (MOLT-4 leukemia cells): 175 nM
- MTF-1 expression change with zinc supplement (MTF-1): reversed by addition of zinc supplement
- MTF-1 gene expression, change (MTF-1): decreased expressions of MT1A, MTF-1 and Cyclin D1
- IC50 (CCRF-CEM leukemia cells): 250 nM
